# Laboratory results from US20030157186A1, “Method for maintaining or improving the synthesis of mucins” (priority 2003, published 2003).
# System: HT29-MTX cells
# Experiment: Fractional synthesis rate of mucoproteins in vitro (3H-threonine incorporation)
# Format: cell-based, human
# Conditions: for mucoprotein FSR: day 7 to 21, mean±SEM, n=6
# Protocol: The effect of threonine supplementation on the mucin synthesis rate was analyzed in vitro in HT29-MTX cells (human colonic carcinoma cells). HT29-MIX cells were grown in normal Dulbecco's modified minimum essential medium (DMEM) supplemented with 10% (v/v) heat-inactivated fetal bovine serum (Life Technologies) and containing 25 mM glucose, 1% non-essential amino acids (Life Technologies), 2 mM glutamine (AJINOMOTO CO), 85 mg/L penicillin-streptomycin, 50 mg/L gentamicin, and 1.5 mg/L Amphotericin B (Life Technologies). Cells were cultured at 37° C. in an atmosphere containing 10% CO2:90% air. The culture medium was changed daily. Experiments were carried out in T75 cm^2 culture flasks between passages 10 to 20. Studies were performed in the late post-confluent period (21 days after seeding), when all cells display a mucin-secreting phenotype. For the experiment, cells were grown in the normal DMEM until confluency (7 days after seeding). Then from day 7 to day 21 after seeding, several concentrations of threonine in the DMEM were tested, namely, 0.2 mM, 0.4 mM, 0.8 mM and 1.6 mM. At day 20, L-(3-^3H) threonine (30 microCi/Flask) was added to a fresh 10 mL culture medium. The incorporation of the radioactive tracer to newly synthesized mucoproteins was determined for the following 24 hour period. After 24 hours of metabolic labeling, the culture medium of cells was removed. […] An aliquot of each homogenate was removed for the measurement of the specific radioactivity of the intracellular free threonine considered as the precursor pool. […] Purified mucins were hydrolyzed with 6M HCl (24 h at 100° C.), and their amino acid composition was determined by HPLC. […] The fractional synthesis rate (FSR) of mucoproteins was calculated and expressed in percent/day (%/d): (FSR=(Specific radioactivity of mucoprotein bound threonine/Specific radioactivity of intracellular free threonine)*100). […] The mucoprotein FSR was determined for each of the varying concentrations of threonine (mM) in the culture medium of HT29-MTX cells as further shown in FIG. 1.
compound,measurement,setting,value
C[C@@H](O)[C@H](N)C(=O)O [threonine],mucoprotein FSR,0.2 mM threonine in culture medium,26.4±1.4%
same,mucoprotein FSR,0.8 mM threonine in culture medium,37.3±1.4%
same,threonine concentration at which mucoprotein FSR reached a plateau,0.2 to 1.6 mM tested,about 0.8 mM
